Values joined by “and” are separate entries in the source; they are usually repeats but may differ in a detail not shown here. Equal entries are not always repeated. Marks after values point to notes of the source that are not given here.
How the values were obtained:
[1] = Phase 1 safety: adverse events, dose-limiting toxicities, thromboembolic events (NCI-CTCAE v5.0); type: in vivo, human
Experimental: The study was approved by the ethics committee at every participating institution and was conducted according to the recommendations of Good Clinical Practice and the Declaration of Helsinki. All patients provided written informed consent to participate in the study.
Part 1 of this study included a dose-escalation cohort to assess the incidence of dose-limiting toxicities (DLTs) and adverse events, and a PK/PD cohort to characterize the PK/PD profile of GSK3368715 (Fig. 1). A food-effect cohort and a second study phase (part 2) to assess the preliminary clinical activity of GSK3368715 were also planned.
For each dosing group in the dose-escalation cohort, GSK3368715 was administered on day 1, no treatment was administered on days 2 and 3 (to characterize single-dose PK), and daily dosing continued thereafter until disease progression, unacceptable toxicity, or withdrawal of consent. Study treatment was dosed at approximately the same time of day (±4 h), with no food for 1 h before and 2 h after each dose.
The study resumed under a protocol amendment with the PK/PD cohort starting at a daily dose of 100 mg, and dose escalation was limited to 50-mg increments. The incidence and frequency of TEEs were added to the DLT criteria (grade 2 TEE requiring systemic anticoagulation or ≥grade 3 TEE) with extended monitoring to 8 weeks or until study discontinuation, whichever occurred first. Further, eligibility criteria were modified to exclude patients at high risk of thrombosis (ie, Khorana score ≥3 or prior medical history of TEE). Patients with a Khorana score of 2 were considered for prophylactic anticoagulation if deemed appropriate by the investigator. Khorana score is a risk assessment model based on clinical and laboratory parameters to classify the risk for chemotherapy-associated venous thromboembolism (Supplemental Table 2).
Adverse events were coded using the standard MedDRA groupings and graded according to NCI-CTCAE version 5.0. Clinical chemistry, urinalysis, and coagulation tests were performed predose on days 1, 8, 15, 22, and weekly thereafter. Tumor imaging occurred every 8 weeks until week 33, and then every 16 weeks thereafter.
The Neuenschwander Continual Reassessment Method dose-escalation design has been previously described. […] Additionally, following the protocol amendment, dose escalations were limited to 50-mg increments.
Adverse events and DLTs were summarized descriptively by dose cohort. Pharmacokinetic parameters of GSK3368715 and its metabolites (GSK3963583 and GSK3983164) were estimated in the PK/PD population (all participants for whom a PK sample was obtained) using a noncompartmental analysis model (WinNonlin version 8.1) and summarized descriptively. Best overall response as per RECIST 1.1 was summarized descriptively by dose cohort. Levels of tumor cell and plasma pharmacodynamic biomarkers were also summarized descriptively.

[2] = test system: ADMA-R225-hnRNP-A1 in tumor biopsies; experiment: Tumor biopsy ADMA-R225-hnRNP-A1 by LC-MS (fresh frozen); type: in vivo, human; conditions: 100-mg dose level, day 15
Experimental: Tumor cell and plasma target engagement PD biomarkers were assessed in the dose-escalation cohort on days 1, 8, 15, and 22. In the PK/PD cohort, urine for PK and metabolite profiling was collected postdose on day 1 and through 48 h postdose on day 2, and for 24 h postdose on day 15. Participants underwent an on-treatment tumor biopsy on day 15. Asymmetric arginine 225 (R225) methylation of heterogeneous nuclear ribonucleoprotein A1 (hnRNP-A1) was identified as a target engagement PD of type I PRMT inhibition; treatment with GSK3368715 results in the reduction of asymmetric dimethylarginine 225 (ADMA-R225) on hnRNP-A1 protein in cancer cell lines and peripheral blood mononuclear cells (PBMCs). Noto et al. describe in detail the identification of hnRNP-A1 as a pharmacodynamic biomarker of type I PRMT inhibition, and the development of novel methodologies to accurately and precisely quantitate changes in the levels of ADMA on hnRNP-A1 in both blood and tumor compartments. Levels of ADMA-R225-hnRNP-A1 were measured in fresh frozen and formalin-fixed paired biopsies by liquid chromatography-mass spectrometry (LC-MS) and immunohistochemistry (IHC).

## CCOCC1(COCC)CCC(c2[nH]ncc2CN(C)CCNC)CC1 [GSK3368715]
[1]
  Grade 3 TEE events: 8
[1]; 50 mg (n = 3)
  AE: Anemia: 1 (33) n (%)
  AE: Diarrhea: 1 (33) n (%)
  AE: Dyspnea: 1 (33) n (%)
  AE: Fatigue: 1 (33) n (%)
  AE: Nausea: 2 (67) n (%)
  AE: Neutrophil count decreased: 0 n (%)
  AE: Pulmonary embolism: 0 n (%)
  AE: Pyrexia: 1 (33) n (%)
  AE: Vomiting: 2 (67) n (%)
  Any AE (all AEs and all grades): 3 (100) n (%)
  GSK3368715-related Grade 3 AE: Aortic thrombosis: 0 n (%)
  GSK3368715-related Grade 3 AE: Atrial fibrillation: 0 n (%)
  GSK3368715-related Grade 3 AE: Deep vein thrombosis: 0 n (%)
  GSK3368715-related Grade 3 AE: Neutrophil count decreased: 0 n (%)
  GSK3368715-related Grade 4 AE: Lymphocyte count decreased: 0 n (%)
  GSK3368715-related Grade 4 AE: Platelet count decreased: 0 n (%)
[1]; 50 mg dose group
  Dose-limiting toxicities (DLTs): no DLTs
[1]; 50 mg, patient with cholangiocarcinoma
  Thromboembolic event grade: Portal vein thrombosis: 2
[1]; 100 mg (n = 16)
  AE: Anemia: 6 (38)^b n (%)
  AE: Diarrhea: 5 (31)^b n (%)
  AE: Dyspnea: 2 (13) n (%)
  AE: Fatigue: 6 (38) n (%)
  AE: Nausea: 3 (19) n (%)
  AE: Neutrophil count decreased: 1 (6)^d,e n (%)
  AE: Pulmonary embolism: 2 (13)^c n (%)
  AE: Pyrexia: 5 (31) n (%)
  AE: Vomiting: 2 (13) n (%)
  Any AE (all AEs and all grades): 15 (94) n (%)
  GSK3368715-related Grade 3 AE: Aortic thrombosis: 0 n (%)
  GSK3368715-related Grade 3 AE: Atrial fibrillation: 0 n (%)
  GSK3368715-related Grade 3 AE: Deep vein thrombosis: 0 n (%)
  GSK3368715-related Grade 3 AE: Neutrophil count decreased: 1 (6)^e n (%)
  GSK3368715-related Grade 4 AE: Lymphocyte count decreased: 0 n (%)
  GSK3368715-related Grade 4 AE: Platelet count decreased: 0 n (%)
[1]; 100 mg, patient with head and neck squamous cell carcinoma, study drug withdrawn
  Thromboembolic event grade: Pulmonary embolism: 2
[1]; 100 mg, patient with pancreas adenocarcinoma
  Thromboembolic event grade: Pulmonary embolism: 3
[1]; 200 mg
  Grade 5 pulmonary embolism, number: 1
[1]; 200 mg (n = 12)
  AE: Anemia: 2 (17) n (%)
  AE: Diarrhea: 1 (8) n (%)
  AE: Dyspnea: 1 (8) n (%)
  AE: Fatigue: 1 (8) n (%)
  AE: Nausea: 4 (33) n (%)
  AE: Neutrophil count decreased: 3 (25) n (%)
  AE: Pyrexia: 0 n (%)
  AE: Vomiting: 3 (25) n (%)
  Any AE (all AEs and all grades): 12 (100) n (%)
  GSK3368715-related Grade 3 AE: Aortic thrombosis: 1 (8)^b,g n (%)
  GSK3368715-related Grade 3 AE: Atrial fibrillation: 1 (8)^g n (%)
  GSK3368715-related Grade 3 AE: Deep vein thrombosis: 1 (8) n (%)
  GSK3368715-related Grade 3 AE: Neutrophil count decreased: 0 n (%)
  GSK3368715-related Grade 4 AE: Lymphocyte count decreased: 1 (8)^b n (%)
  GSK3368715-related Grade 4 AE: Platelet count decreased: 1 (8)^b,g n (%)
[1]; 200 mg, patient with epithelioid hemangioendothelioma
  Thromboembolic event grade: Pulmonary embolism: 3
[1]; 200 mg, patient with mucoepidermoid carcinoma of parotid
  Thromboembolic event grade: Pulmonary embolism: 3
[1]; 200 mg, patient with pancreas adenocarcinoma mucinous, fatal
  Thromboembolic event grade: Pulmonary embolism: 5
[1]; 50-mg dose group
  Participants with grade 2 portal vein thrombosis: 1
[1]; 100-mg dose group
  Dose-limiting toxicities (DLTs): no DLTs
  Patients with grade 3 decrease in neutrophil count leading to dose reduction: 1 patient
  Pulmonary embolisms reported (1 grade 2, 1 grade 3): 2
[1]; 200-mg dose group
  Grade 3 aortic thrombosis events: 1
  Grade 3 deep vein thrombosis events: 1
  Grade 3 portal vein thrombosis events: 2
  Grade 3 pulmonary embolism events: 4
  Patients with grade 3 aortic thrombosis: 1 patient
  Patients with grade 3 atrial fibrillation: 1 patient
  Patients with grade 3 deep vein thrombosis: 1 patient
  Patients with grade 4 decrease in lymphocyte count: 1 patient
  Patients with grade 4 decrease in platelet count: 2 patients
[1]; 200-mg dose group (n = 12), aortic thrombosis, atrial fibrillation, decrease in platelet count
  Patients with dose-limiting toxicities (DLTs): 25%
[1]; 200-mg dose group, PE and intracranial hemorrhage
  Fatal (grade 5) SAEs: 2
[1]; Total (N = 31)
  AE: Anemia: 9 [29%] n (%) and 9 (29) n (%)
  AE: Diarrhea: 7 (23) n (%)
  AE: Dyspnea: 4 (13) n (%)
  AE: Fatigue: 8 [26%] n (%) and 8 (26) n (%)
  AE: Nausea: 9 [29%] n (%) and 9 (29) n (%)
  AE: Neutrophil count decreased: 4 (13) n (%)
  AE: Pyrexia: 6 (19) n (%)
  AE: Vomiting: 7 (23) n (%)
  Any AE (all AEs and all grades): 30 [97%] n (%) and 30 (97) n (%)
  GSK3368715-related AEs by maximum grade: Grade 3: 4 (13) n (%)
  GSK3368715-related AEs by maximum grade: Grade 4: 2 (6) n (%)
[1]; across dose groups (abstract)
  Number of grade 3 TEEs: 8
[1]; across dose groups, N = 31, 95% confidence interval 14–48%
  Patients experiencing thromboembolic events (TEEs): 29%
[1]; across dose groups, in 9 participants
  Number of thromboembolic events (TEEs): 12
[1]; all dose groups
  Changes from baseline for clinical chemistry, hematology, urinalysis, or echocardiograms (ECGs): No clinically significant trends
[1]; all dose groups, N = 31
  Patients who discontinued due to a DLT: 3
  Patients who discontinued due to an AE: 5 patients
  Patients with ≥1 grade 3 or grade 4 treatment emergent AEs: 52%
  Patients with ≥1 serious AE (SAE): 39%
[2]
  Target engagement in tumor biopsies: modest and variable
[2]; in 4/6 patients
  Mean reduction of ADMA-hnRNP-A1 in tumor biopsies by LC-MS (SE 9.6): 18.5%
